Assay [1] has as its target T1, MNMR ((−)‐menthone:(+)‐neomenthol reductase) (Mentha x piperita, UniProt Q06ZW2).
T1 construct: recombinant; catalytic Tyr244
In words: X-ray crystal structure (soaking). The assay is classed as binding. Particulars: coenzyme site.

The target in assay [2] is T2, IPR (isopiperitenone reductase) (Mentha x piperita, UniProt Q6WAU1).
T2 construct: recombinant; NADP+ scavenged from host cells; catalytic Glu238
In words: X-ray crystal structure. Type of assay: binding.

T2 sequence (Q6WAU1 whole entry): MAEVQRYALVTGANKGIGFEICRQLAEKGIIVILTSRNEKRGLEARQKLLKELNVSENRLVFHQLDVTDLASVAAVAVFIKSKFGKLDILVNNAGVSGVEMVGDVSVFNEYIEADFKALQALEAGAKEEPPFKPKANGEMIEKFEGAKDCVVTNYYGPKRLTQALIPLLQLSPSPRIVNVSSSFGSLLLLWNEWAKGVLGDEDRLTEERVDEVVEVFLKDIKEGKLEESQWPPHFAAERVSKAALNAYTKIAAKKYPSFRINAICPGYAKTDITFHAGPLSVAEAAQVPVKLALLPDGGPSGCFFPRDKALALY
T1 sequence (Q06ZW2 entry or part of it): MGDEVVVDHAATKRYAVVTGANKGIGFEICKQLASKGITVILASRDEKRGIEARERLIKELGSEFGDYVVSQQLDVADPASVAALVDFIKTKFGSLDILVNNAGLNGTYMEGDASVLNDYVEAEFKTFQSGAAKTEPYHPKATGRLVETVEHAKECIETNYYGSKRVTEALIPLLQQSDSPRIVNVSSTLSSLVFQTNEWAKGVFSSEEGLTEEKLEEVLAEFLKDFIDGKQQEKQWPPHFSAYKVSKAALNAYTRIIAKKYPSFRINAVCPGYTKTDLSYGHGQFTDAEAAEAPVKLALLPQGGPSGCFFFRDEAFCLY

`NC(=O)c1ccc[n+]([C@@H]2O[C@H](COP(=O)(O)OP(=O)(O)OC[C@H]3O[C@@H](n4cnc5c(N)ncnc54)[C@H](OP(=O)(O)O)[C@@H]3O)[C@@H](O)[C@H]2O)c1` [NADP^+]: the “X-ray crystal structure (soaking)” value in assay [1] is given as “A coenzyme‐bound MNMR structure was obtained by soaking crystals with NADP^+”. Moreover, the X-ray crystal structure result in assay [2] (scavenged from expression host) is recorded as “clear density in the F0−Fc map for NADP^+”.
Turning to `CC1=C(C=O)C(C)(C)CCC1` [β‐cyclocitral], the X-ray crystal structure result in assay [2] (active site, non-substrate, with NADP+) is reported as “The IPR–β‐cyclocitral co‐crystal structure shows the ligand binds in a non‐active conformation”.

The values above are taken from paper PMC4988499, “Pinpointing a Mechanistic Switch Between Ketoreduction and “Ene” Reduction in Short‐Chain Dehydrogenases/Reductases” (Angewandte Chemie (Weinheim an Der Bergstrasse, Germany), 2016).
